Assay results taken from US7598421B2, “Materials for the delivery of biologically-active material to cells” (UCL Biomedica PLC, priority 2002, dated 2009).

Legend:
[1] = test system: Human airway epithelial cells; experiment: Transfection efficiency, luciferase assay in HAE cells (Example 19); format: cell-based; set-up: scale not given here; conditions: peptide:DNA 4:1, peptide [K]16 GACRRETAWACG
Description: The activity of various compositions of the invention was measured in HAE cells using a Luciferase assay. RLU/mg refers to relative light units per mg of protein. The assay was carried out as follows:
Lipid (10 mg/mL; […] [1 mg of lipid]) in chloroform was placed into a glass vial (sterile). The solvents were removed in vacuo and further traces of chloroform were removed on the high vacuum for 24 h. Cationic lipids were either formulated alone or with DOPE (mole ratio, 1:1).
Deionized water (1 mL; MilliQ) was added to the film, to generate […] solution of lipid in water. The mixture was allowed to hydrate at 4° C. for 24 h. After warming to 40° C. the mixture was sonicated to generate a clear solution (5 in approx). The resulting liposome formulations were stable for up to 3 months.
The components of the complex were mixed in the required weight ratio. The lipid was initially mixed with the peptide and the resulting mixture was added to the plasmid DNA.
Human airway epithelial cells were seeded for 24 h at 37 °C in complete growth medium in a […]. Transfection complexes were left to aggregate for 30 min and diluted to a concentration of 1 μg of DNA per 0.5 ml in OptiMEM (Life technologies). The medium was removed from each well and replaced with 0.5 ml of transfection complex and was allow to incubate for a further 4 h. The transfection complexes were removed and then replace with growth medium and the cells were allowed to incubate for 48 h.
The transfected cells were washed with phosphate-buffered saline (PBS). Reporter lysis buffer (100 μl) (Promega) was added to each well and cooled to 4 °C for 15 min. The cells were then assayed with a luciferase assay kit. The total light emission was measured for each well for 60 sec. The protein concentration of each sample was determined using a protein assay reagent and the activity expressed as relative light units per milligram of protein (RLU/mg).
The values obtained for the lipids produced in Examples 17 and 18 above and for Lipofectin were measured at 1:1 and 2:1 ratios of lipid:DNA, and in each case the ratio of peptide:DNA was 4:1, the peptide used being [K]16 GACRRETAWACG. The ratios are expressed in terms of weight. The testing procedure used was that outlined in Human Gene Therapy 9, 575-585, 1998.

integrins = conditions: cited from earlier work; for affinity and specificity for integrins: literature

| Molecule | luciferase activity, relative light units per mg of protein ([1]; 1:1 lipid:DNA by weight) [RLU/mg] | luciferase activity, relative light units per mg of protein ([1]; 2:1 lipid:DNA by weight) [RLU/mg] | affinity and specificity for integrins (integrins) | integrin specificity (integrins; table of peptides) |
| --- | --- | --- | --- | --- |
| CCCCCCCC/C=C\CCCCCCCC(=O)OC(C[N+](C)(C)C)C(C[N+](C)(C)C)OC(=O)CCCCCCC/C=C\CCCCCCCC.[I-].[I-] (centres unmarked) [Example 17, 1,4-Di(trimethylammonium)-2,3-dioleoyloxy-butane; diiodide] | 1.2 | 2.0 |  |  |
| CCCCCCCC/C=C\CCCCCCCCOC(C[N+](C)(C)C)C(C[N+](C)(C)C)OCCCCCCCC/C=C\CCCCCCCC (centres unmarked) [Example 18, 1,4-Di(trimethylammonium)-2,3-dioleyloxy-butane; diiodide] | 43.2 | 373.3 |  |  |
| GACDCRGDCFCA [Peptide 5] |  |  | high affinity for integrin v but is not v-specific | Peptide 5 (αv) |
| GACRGDMFGCA [Peptide 1] |  |  | affinity for 5 and av integrins but is non-specific |  |
| GACRRETAWACG [Peptide 6] |  |  | 51-specific |  |
